Laboratory results taken from patent US8044057B2, “Methods for suppressing an immune response or treating a proliferative disorder” (The United States of America as represented by the …, priority 2003, dated 2011).

Key:
[1] = test system: mTOR; test: Western blot of phospho-mTOR S2481 (autophosphorylation) in A549 cells; assay type: cell-based, human; conditions: 0-100 μM LY303511, LPS/IFN-γ
Protocol: Cells were reacted with 0-100 μM LY303511 for 1 hour before addition of L/I for 30 min and preparation of cell lysates. Samples (70 μg) of proteins were separated by SDS-PAGE and transferred to nitrocellulose membranes before immunodetection of phospho-p70 S6 kinase T389 (pS6K), phospho-Akt S473 (pAkt), total p70 S6 kinase (S6K), total Akt (Akt), phospho-mTOR S2481 (pmTOR), or total mTOR (mTOR) by Western blot. Positions of protein standards (kDa) are on the right. For the bar graph and digital images shown in FIG. 1D, band density measurements were also represented graphically. Integrated band densities for pmTOR were normalized to those of total mTOR. […]
A549 cells were treated without or with 100 mcM LY303511, 200 ng/ml rapamycin, or 50 nM wortmannin in serum free media for 1 hour before addition of E. coli lipopolysaccharide (LPS), 1000 mcglml and interferon (IFN)-γ, 100 U/ml (LPS/IFN-γ or “L/I”). Cells were homogenized and the indicated proteins (see Table 1) were detected by Western blot. […]
Measurement of protein phosphorylation: A549 cells were incubated in serum-free medium without or with inhibitors for 1 hour, as indicated, before incubation for 30 minutes with a mixture of LPS, 100 μg/ml (Sigma; St. Louis, Mo.) and IFN-γ, 100 U/ml (Roche; Nutley, N.J.). […] Integrated band densities were quantified using Scion Image beta 3b software.

[2] = test system: A549 cells; test: A549 cell count after 24 hours with inhibitors; assay type: cell-based, human; conditions: 100 μM LY303511, rapamycin 200 ng/ml, 200 nM wortmannin, 100 μM LY294002
Protocol: FIG. 2A is a bar graph showing LY303511 blocks cell proliferation, DNA synthesis, and cell cycle progression in A549 cells. A. A549 cells (80,000 cells per 35-mm dish) were grown for 1 day in medium with FBS before the addition of 0.1% DMSO, 100 μM LY303511, rapamycin, 200 ng/ml, 200 nM wortmannin, or 100 μM LY294002 for 24 hours. Cells were then incubated with trypsin, collected, and counted. Data are the means of cells/well×10^−4 ±SEM from duplicate assays in three experiments. *p<0.05 by Student's t-test. FIG. 2B is a line graph from results obtained when A549 cells (4,000 per well) in 96-well plates were grown in medium with FBS for 24 h before the addition of […] plus 0-200 μM LY303511 without or with rapamycin, 200 ng/ml, or with rapamycin alone (0-200 ng/ml). BrDU incorporation (absorbance at 490/465) was measured by in situ ELISA as per the manufacturer's instructions (BrDU detection kit, Roche). For each experiment, BrDU in cells incubated with inhibitors was expressed as a percentage of that in cells treated with 0.2% DMSO control (% control). Mean absorbance measures for controls=100% in each experiment were 0.9±0.3, 0.8±0.3, and 0.8±0.3. […]
Additionally, A549 cells (80,000 cells per well), were grown for 24 hours before addition of inhibitors (FIG. 2A). After 24 hours, trypan blue-stained cells were counted using a hemocytometer. […]

[3] = test system: primary mouse peritoneal macrophages; test: LPS-induced cytokine production in peritoneal macrophages; assay type: cell-based; conditions: LPS 1 μg/ml; 1~100 μM; 24 hours
Protocol: FIG. 7A-F are bar graphs showing that LY303511 inhibits lipopolysaccharide (LPS)—induced cytokine production or STAT1 activity in primary mouse peritoneal macrophages or A549 cells. Wild-type mice from Jackson (Jac) and Taconic (Tac) were used. Peritoneal macrophages were harvested three days after thioglycolate injection. Cells were incubated for three days in 2% FCS RPMI. The supernatant was collected after stimulation with LPS 1 μg/ml with or without LY 303511 (1˜100 μM) or DMSO for 24 hours. Cytokines (interleukin (IL)-12p70, tumor necrosis factor (TNF)-α, interferon (IFN)-γ, MCP-1, IL-10, IL-6) were measured in cell supematants. […] Thus, LY303511 clearly can reduce cytokine expression, and has an anti-inflammatory effect.
Peritoneal macrophages were harvested three days after thioglycolate injection. Cells were incubated for three days in 2% FCS RPM. The supernatant was collected after stimulation with LPS 1 μg/ml with or without LY 303511 (1˜100 μM) or DMSO for 24 hours. Cytokines (interleukin (IL)-12p70, tumor necrosis factor (TNF)-α, interferon (IFN)-γ, monocyte chemoattractant protein (MCP)-1, IL-10, IL-6) were measured in cell supernatants. […] Thus, LY303511 clearly can reduce cytokine expression, and has an anti-inflammatory effect.

O=c1cc(N2CCNCC2)oc2c(-c3ccccc3)cccc12 [LY303511, 2-(4-piperazinyl)-8-phenyl-4H-1-benzopyran-4-one]
autophosphorylation of mTOR (S2481) [1]: inhibits autophosphorylation of mTOR in a concentration-dependent fashion | cell proliferation (cell number) [2]: significant inhibitory effect | LPS-induced cytokines (IL-12p70, TNF-α, IFN-γ, MCP-1, IL-10, IL-6) in cell supernatants [3]: dose-dependent reduction of all six cytokines
